{
  "source": "patent EP2607478A1",
  "about": "“Phenanthroline treated MSC” (Universiteit Twente, priority 2011, dated 2013)",
  "system": "MSCs",
  "test": "Whole genome expression analysis (Illumina microarray) of treated MSCs",
  "assay_type": "cell-based, Human",
  "conditions": "DFO versus Bas",
  "protocol": "MSCs were seeded in T25 flasks at 5000 cells/cm^2 and allowed to attach overnight in proliferation medium. […] After 48 hours, RNA was isolated as described above. From 500 ng of RNA, cRNA was synthesized using the Illumina TotalPrep RNA amplification Kit (Ambion), according to the manufacturer's protocol and the quality of RNA and cRNA was verified on a Bioanalyzer 2100 (Agilent). Microarrays were performed using Illumina HT-12 v4 expression Beadchips, according to the manufacturer's protocol. Briefly, 750 ng of cRNA was hybridized on the array overnight after which the array was washed and blocked. Then, by addition of streptavidin Cy-3 a fluorescent signal was developed. Arrays were scanned on an Illumina iScan reader and raw intensity values were background corrected in GenomeStudio (Illumina). Further data processing and statistical testing were performed with R and Bioconductor statistical software (www.bioconductor.org), using package lumi. Raw intensity values were transformed using variance stabilization and a quantile normalization was performed. A linear modelling approach with empirical Bayesian methods, as implemented in Limma package (54), was applied for differential expression analysis of the resulting probe-level expression values. A gene list, containing only those genes with an absolute 1.5-fold change between different treatments, was uploaded to Ingenuity Pathway Analysis (IPA) software and used for core analysis. Pathways or networks with a p-value of 0.05 were considered statistically significant.",
  "data": [
    {"smiles": "CC(=O)N(O)CCCCCNC(=O)CCC(=O)N(O)CCCCCNC(=O)CCC(=O)N(O)CCCCCN", "note": "[DFO, reference compound]", "values": [
      {"measurement": "logFC(D142_ DFO - D142_BAS) KCNK2", "setting": "ProbeID ILMN_1765990", "value": "-2,07"},
      {"measurement": "logFC(D142_ DFO - D142_BAS) C10orf10", "setting": "ProbeID ILMN_1767556", "value": "3,15"},
      {"measurement": "logFC(D142_ DFO - D142_BAS) BTG2", "setting": "ProbeID ILMN_1770085", "value": "2,57"},
      {"measurement": "logFC(D142_ DFO - D142_BAS) KRT34", "setting": "ProbeID ILMN_1770228", "value": "3,81"},
      {"measurement": "logFC(D142_ DFO - D142_BAS) CNN2", "setting": "ProbeID ILMN_1770290", "value": "-2,29"},
      {"measurement": "logFC(D142_ DFO - D142_BAS) ANGPTL2", "setting": "ProbeID ILMN_1772612", "value": "-2,31"},
      {"measurement": "logFC(D142_ DFO - D142_BAS) ZNF395", "setting": "ProbeID ILMN_1772876", "value": "2,75"},
      {"measurement": "logFC(D142_ DFO - D142_BAS) GAS1", "setting": "ProbeID ILMN_1772910", "value": "-3,12"},
      {"measurement": "logFC(D142_ DFO - D142_BAS) DKK1", "setting": "ProbeID ILMN_1773337", "value": "2,79"},
      {"measurement": "logFC(D142_ DFO - D142_BAS) FBLN2", "setting": "ProbeID ILMN_1774602", "value": "-2,23"},
      {"measurement": "logFC(D142_ DFO - D142_BAS) SLC2A3", "setting": "ProbeID ILMN_1775708", "value": "2,53"},
      {"measurement": "logFC(D142_ DFO - D142_BAS) KCTD11", "setting": "ProbeID ILMN_1777513", "value": "2,12"},
      {"measurement": "logFC(D142_ DFO - D142_BAS) LOC644774", "setting": "ProbeID ILMN_1779258", "value": "2,61"},
      {"measurement": "logFC(D142_ DFO - D142_BAS) CPA4", "setting": "ProbeID ILMN_1784294", "value": "5,59"},
      {"measurement": "logFC(D142_ DFO - D142_BAS) SPOCD1", "setting": "ProbeID ILMN_1784948", "value": "-2,53"},
      {"measurement": "logFC(D142_ DFO - D142_BAS) PRKD1", "setting": "ProbeID ILMN_1785891", "value": "-2,05"},
      {"measurement": "logFC(D142_ DFO - D142_BAS) UHRF1", "setting": "ProbeID ILMN_1786065", "value": "-2,34"},
      {"measurement": "logFC(D142_ DFO - D142_BAS) CDKN1A", "setting": "ProbeID ILMN_1787212", "value": "2,78"},
      {"measurement": "logFC(D142_ DFO - D142_BAS) TRIB3", "setting": "ProbeID ILMN_1787815", "value": "3,16"},
      {"measurement": "logFC(D142_ DFO - D142_BAS) COL11A1", "setting": "ProbeID ILMN_1789507", "value": "-2,55"},
      {"measurement": "logFC(D142_ DFO - D142_BAS) GBE1", "setting": "ProbeID ILMN_1789702", "value": "2,29"},
      {"measurement": "logFC(D142_ DFO - D142_BAS) PRRX2", "setting": "ProbeID ILMN_1790338", "value": "-2,49"},
      {"measurement": "logFC(D142_ DFO - D142_BAS) LUM", "setting": "ProbeID ILMN_1790529", "value": "-3,27"},
      {"measurement": "logFC(D142_ DFO - D142_BAS) CXCL12", "setting": "ProbeID ILMN_1791447", "value": "-2,57"},
      {"measurement": "logFC(D142_ DFO - D142_BAS) DPYSL4", "setting": "ProbeID ILMN_1792356", "value": "3,05"},
      {"measurement": "logFC(D142_ DFO - D142_BAS) TMEM158", "setting": "ProbeID ILMN_1792455", "value": "2,58"},
      {"measurement": "logFC(D142_ DFO - D142_BAS) SERTAD1", "setting": "ProbeID ILMN_1794017", "value": "2,25"},
      {"measurement": "logFC(D142_ DFO - D142_BAS) CAMK2N1", "setting": "ProbeID ILMN_1794863", "value": "2,65"},
      {"measurement": "logFC(D142_ DFO - D142_BAS) PTP4A2", "setting": "ProbeID ILMN_1795697", "value": "2,22"},
      {"measurement": "logFC(D142_ DFO - D142_BAS) ASNS", "setting": "ProbeID ILMN_1796417", "value": "2,93"},
      {"measurement": "logFC(D142_ DFO - D142_BAS) HMGCS1", "setting": "ProbeID ILMN_1797728", "value": "-2,09"},
      {"measurement": "logFC(D142_ DFO - D142_BAS) PTPRF", "setting": "ProbeID ILMN_1798081", "value": "2,28"},
      {"measurement": "logFC(D142_ DFO - D142_BAS) AK3L1", "setting": "ProbeID ILMN_1798249", "value": "2,66"},
      {"measurement": "logFC(D142_ DFO - D142_BAS) PLIN2", "setting": "ProbeID ILMN_1801077", "value": "2,94"},
      {"measurement": "logFC(D142_ DFO - D142_BAS) FAM162A", "setting": "ProbeID ILMN_1803647", "value": "2,50"},
      {"measurement": "logFC(D142_ DFO - D142_BAS) CXCL12", "setting": "ProbeID ILMN_1803825", "value": "-2,19"},
      {"measurement": "logFC(D142_ DFO - D142_BAS) VEGFA", "setting": "ProbeID ILMN_1803882", "value": "3,15"},
      {"measurement": "logFC(D142_ DFO - D142_BAS) FMO3", "setting": "ProbeID ILMN_1808657", "value": "-2,46"},
      {"measurement": "logFC(D142_ DFO - D142_BAS) PGF", "setting": "ProbeID ILMN_1809813", "value": "2,55"},
      {"measurement": "logFC(D142_ DFO - D142_BAS) NDRG1", "setting": "ProbeID ILMN_1809931", "value": "3,57"},
      {"measurement": "logFC(D142_ DFO - D142_BAS) SFRP4", "setting": "ProbeID ILMN_1810172", "value": "-2,03"},
      {"measurement": "logFC(D142_ DFO - D142_BAS) FAM129A", "setting": "ProbeID ILMN_1810725", "value": "2,88"},
      {"measurement": "logFC(D142_ DFO - D142_BAS) PDE5A", "setting": "ProbeID ILMN_1810836", "value": "-2,08"},
      {"measurement": "logFC(D142_ DFO - D142_BAS) LOC402221", "setting": "ProbeID ILMN_1811909", "value": "-2,22"},
      {"measurement": "logFC(D142_ DFO - D142_BAS) FAM20A", "setting": "ProbeID ILMN_1812091", "value": "-2,11"},
      {"measurement": "logFC(D142_ DFO - D142_BAS) SOX18", "setting": "ProbeID ILMN_1812968", "value": "-2,09"},
      {"measurement": "logFC(D142_ DFO - D142_BAS) FKSG30", "setting": "ProbeID ILMN_1814998", "value": "-2,25"},
      {"measurement": "logFC(D142_ DFO - D142_BAS)", "setting": "ProbeID ILMN_1843198 (no gene name printed)", "value": "3,25"},
      {"measurement": "logFC(D142_ DFO - D142_BAS)", "setting": "ProbeID ILMN_1890614 (no gene name printed)", "value": "3,41"}
    ]}
  ]
}
